Read-outs that look alike come from different tables or passages of the source.
Assays:
[1] = rats, fasted, PO 27.7 mg/kg Compound AM-9
Description: Animals were fasted overnight through 4 hours postdose prior to dosing, 4 animals per groups. Individual doses of AM-9 was calculated based on body weights taken on the day of dosing. […] Prior to withdrawing the gavage tube, the tube was flushed with approximately 2 mL of water.
Blood was collected from a jugular vein into tubes containing K2EDTA anticoagulant. Blood (approximately 1 mL) was collected from each animal predose and at 0.167, 0.333, 0.5, 0.667, 0.833 1, 2, 4, 5, and 8 hours postdose and processed for plasma. Plasma samples were evaluated for AM-9 and amphetamine by LC-MS-MS Mass spectrometer (API 5000 AB Sciex Instruments).

[2] = male Beagle dogs, fasted, PO 0.4 mg/kg
Description: (§1) Male Beagle dogs were fasted overnight through 4 hours postdose. Individual doses of all amphetamine and AM-9 (0.4 mg/kg) were calculated based on body weights taken on the day of each dosing. The liquid formulations were administered via oral gavage, 4 per group. Prior to withdrawing the gavage tube, the tube was flushed with approximately 10 mL of water.
(§2) Blood (approximately 2 mL) was collected from each animal predose and at 0.167, 0.333, 0.5, 0.75, 1, 2, 3, 4, 6, and 8 hours postdose and processed for plasma. Plasma samples were evaluated for amphetamine by LC-MS-MS Mass spectrometer (API 5000 AB Sciex Instruments).

[3] = rats, fasted, IV 10 mg/kg Compound AM-9; 2, 15 and 60 min postdose
Description: The formulation was a clear solution. Animals were fasted overnight through 4 hours postdose prior to dosing, 4 animals per groups. Individual doses of AM-9 was calculated based on body weights taken on the day of dosing.
Blood was collected from a jugular vein into tubes containing K2EDTA anticoagulant. Blood (approximately 1 mL) was collected from each animal predose and at 2, 15 and 60 min postdose and processed for plasma. CSF was obtained at these same time periods. Plasma and CSF samples were evaluated for AM-9 by LC-MS-MS Mass spectrometer (API 5000 AB Sciex Instruments).

[4] = male Beagle dogs, fasted, PO Compound AM-9
Description: as §1, with “of” for “of all amphetamine and”, “AM-9” for “AM-9 (0.4 mg/kg)”
Blood (approximately 2 mL) was collected from each animal predose and at 0.167, 0.333, 0.5, 0.75, 1, 2, 3, 4, 6, and 8 hours postdose and processed for plasma. Plasma samples were evaluated for AM-9 and amphetamine by LC-MS-MS Mass spectrometer (API 5000 AB Sciex Instruments).

[5] = Plasma amphetamine following PO administration of d-amphetamine, Compound AM-9 and Vyvanse to dogs (Example 7); conditions: male Beagle dogs, fasted
Description: as §1, with “amphetamine, AM-9” for “all amphetamine”, “Vyvanse” for “AM-9 (0.4 mg/kg)”
as §2

[6] = rats, fasted, IV 5 mg/kg Compound AM-9
Description: Animals were fasted overnight through 4 hours postdose prior to dosing, 4 animals per groups. Individual doses of AM-9 was calculated based on body weights taken on the day of dosing.
Blood was collected from a jugular vein into tubes containing K2EDTA anticoagulant. Blood (approximately 1 mL) was collected from each animal predose and at 0.167, 0.333, 0.5, 0.667, 0.833 1, 2, 4, and 7 hours postdose and processed for plasma. Plasma samples were evaluated for either AM-9 or amphetamine by LC-MS-MS Mass spectrometer (API 5000 AB Sciex Instruments).

[7] = Plasma amphetamine following PO Compound AM-9 0.6 mg/kg to rats without and with trypsin inhibitor nafamostat (Example 8); assay type: in vivo
Description: This example provides a comparison of the immediate release of amphetamine into plasma when Compound AM-9 at a dosage of 0.6 mg/kg is administered PO to fasted rats alone, or with 0.1 and 0.25 mg/kg trypsin inhibitor Nafamostat.
(§3) The formulation was a clear solution. Animals were either fasted overnight through 4 hours postdose or fed ad lib prior to dosing, 4 animals per groups. […] The liquid formulation was administered via oral gavage at […].
FIG. 8A depicts the mean plasma concentration of amphetamine over 8 hours after administration of Compound AM-9 at doses of 0.6 mg/kg alone and in combination with 0.1 mg/kg of Nafamostat and 0.25 mg/kg of Nafamostat. FIG. 8B depicts the mean plasma concentration of amphetamine over the first 2 hours after administration of Compound AM-9 at doses of 0.6 mg/kg alone and in combination with 0.1 mg/kg of Nafamostat and 0.25 mg/kg of Nafamostat.

[8] = Plasma amphetamine following PO Compound AM-9 6 mg/kg to rats without and with trypsin inhibitor nafamostat (Example 9); assay type: in vivo; conditions: fasted rats, PO Compound AM-9 6 mg/kg with 1, 2.5, 5 and 10 mg/kg Nafamostat vs alone
Description: This example provides a comparison of the immediate release of amphetamine into plasma when Compound AM-9 at a dosage of 6 mg/kg is administered PO to fasted rats alone, or with 1, 2.5, 5 and 10 mg/kg trypsin inhibitor Nafamostat.
as §3

[9] = fasted rats, PO Compound AM-9 0.6 mg/kg with 0.1 and 0.25 mg/kg Nafamostat vs alone

CC(=O)NCC(=O)N[C@@H](CCCNC(=N)N)C(=O)N[C@@H](C)Cc1ccccc1 [Compound AM-9, Amphetamine-arginine-glycine-acetate]
conversion of administered AM-9 to amphetamine [1]: majority of the administered AM-9 is immediately converted to amphetamine
peak plasma concentration (Cmax) of AM-9 relative to peak plasma concentration of amphetamine [1]: approximately half
amphetamine Tmax (time to maximum plasma concentration) compared with administration of amphetamine [2]: the same Tmax
AM-9 crossing from plasma into the CSF [3]: very little AM-9 that crosses from plasma into the CSF
conversion of administered AM-9 to amphetamine [4]: majority of the administered AM-9 is immediately converted to amphetamine
peak plasma concentration of AM-9 relative to that of amphetamine [4]: less than half
Tmax for peak plasma concentration of amphetamine compared with direct administration of amphetamine [5]: the same as that from direct administration of amphetamine
conversion of AM-9 to amphetamine in the blood [6]: very little conversion of AM-9 to amphetamine in the blood

N=C(N)c1ccc2cc(OC(=O)c3ccc(N=C(N)N)cc3)ccc2c1 [Nafamostat, 6-carbamimidoylnaphthalen-2-yl 4-(diaminomethyleneamino)benzoate]
effect on Cmax of amphetamine release from AM-9 [7, 9]: reduces the Cmax
effect on Tmax of amphetamine release from AM-9 [7, 9]: increases the Tmax
effect on release of amphetamine from Compound AM-9 from oral administration ([7]; rats, PO Compound AM-9 0.6 mg/kg alone and with 0.1 or 0.25 mg/kg Nafamostat, FIGS. 8A-8B): reduces the release of amphetamine
effect on Cmax of amphetamine release from AM-9 [8]: reduces the Cmax
effect on Tmax of amphetamine release from AM-9 [8]: increases the Tmax

CS(=O)(=O)O.CS(=O)(=O)O.C[C@@H](Cc1ccccc1)NC(=O)[C@@H](N)CCCCN [Vyvanse, reference compound]
Tmax for peak plasma amphetamine concentration [5]: 2 h

From patent US20220175699A1, “CO[…]-CLEAVABLE A[…] AND […]” (Ensysce Biosciences, Inc., priority 2019, published 2022)
